Counter-ions that a name gives are not always drawn.
These compounds were tested against Steroidogenic factor 1 (Homo sapiens, UniProt Q13285) (assay: SF-1 inhibitors in Gal4 reporter counter-screen, dose response, counter-screen for RORA inhibitor project, cell-based, CHO-K1, Gal4-SF-1 LBD, luciferase luminescence (AID 611)). Conditions: not given.
Sequence of Steroidogenic factor 1 (Q13285 whole entry, the tested form may be a part): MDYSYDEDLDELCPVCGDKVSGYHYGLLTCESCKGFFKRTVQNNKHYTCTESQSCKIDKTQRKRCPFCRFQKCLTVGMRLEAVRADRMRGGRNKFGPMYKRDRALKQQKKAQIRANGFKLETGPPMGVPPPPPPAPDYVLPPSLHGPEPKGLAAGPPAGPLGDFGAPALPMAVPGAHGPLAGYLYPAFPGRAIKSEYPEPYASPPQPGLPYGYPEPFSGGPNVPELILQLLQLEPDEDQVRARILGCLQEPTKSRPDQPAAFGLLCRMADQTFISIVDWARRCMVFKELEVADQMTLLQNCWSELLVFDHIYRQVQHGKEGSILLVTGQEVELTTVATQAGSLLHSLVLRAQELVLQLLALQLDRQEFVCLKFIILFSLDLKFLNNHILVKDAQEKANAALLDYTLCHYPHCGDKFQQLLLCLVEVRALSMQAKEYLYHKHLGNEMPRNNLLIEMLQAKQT

| SMILES | IC50 |
| --- | --- |
| COc1cccc(N2CCN(c3ncnc4c3[nH]c3ccc(F)cc34)CC2C)c1 (centres undefined) [8-fluoranyl-4-[4-(3-methoxyphenyl)-3-methyl-piperazin-1-yl]-5H-pyrimido[5,4-b]indole] | 1.44 µM |
| Cc1nnc(SC(=O)N2c3ccccc3Sc3ccccc32)s1 [10-phenothiazinecarbothioic acid S-(5-methyl-1,3,4-thiadiazol-2-yl) ester] | 6.07 µM |
| O=C(OC1CCOC1=O)c1ccc(-c2nc3ccccc3s2)s1 (centres undefined) [(2-oxidanylideneoxolan-3-yl) 5-(1,3-benzothiazol-2-yl)thiophene-2-carboxylate] | 5.18 µM |
| O=C1C(=CNc2ccc3c(c2)OCO3)CCc2ccccc21 [(2E)-2-[(1,3-benzodioxol-5-ylamino)methylene]tetralin-1-one] | 3.32 µM |
| COc1cccc2sc(Nc3nc(-c4ccccn4)cs3)nc12 [(4-methoxy-1,3-benzothiazol-2-yl)-[4-(2-pyridyl)thiazol-2-yl]amine] | 3.89 µM |
| CN=c1scc(C)n1N=Cc1ccc(O)cc1O [(4E)-4-[[(4-methyl-2-methylimino-1,3-thiazol-3-yl)amino]methylidene]-3-oxidanyl-cyclohexa-2,5-dien-1-one] | 1.94 µM |
| COc1ccc(CCNc2c(C)c(C)nc3ncnn23)cc1 [(5,6-Dimethyl-[1,2,4]triazolo[1,5-a]pyrimidin-7-yl)-[2-(4-methoxy-phenyl)-ethyl]-amine] | 6.45 µM |
| COc1cccc2c1C(=O)c1c(O)c3c(c(O)c1C2=O)C[C@@](O)(C(C)=O)C[C@@H]3O[C@H]1C[C@H](N)[C@H](O)[C@H](C)O1 [(7S,9S)-9-acetyl-7-[(2R,4S,5S,6S)-4-amino-5-hydroxy-6-methyloxan-2-yl]oxy-6,9,11-trihydroxy-4-methoxy-8,10-dihydro-7H-tetracene-5,12-dione;hydrochloride] | 0.409 µM |
| C[C@H]1CCCC=CC2C[C@H](O)CC2[C@H](O)C=CC(=O)O1 (stereo partly drawn) [(7S,12R,15S)-12,15-dihydroxy-7-methyl-8-oxabicyclo[11.3.0]hexadeca-2,10-dien-9-one] | 8.95 µM |
| Cc1ccc(C(=O)CC=Nc2ccccn2)cc1 [(E)-1-(4-methylphenyl)-3-(2-pyridinylamino)-2-propen-1-one] | 1.49 µM |
| O=C(CC=Nc1ccccn1)c1ccc(Cl)cc1 [(Z)-1-(4-chlorophenyl)-3-(2-pyridinylamino)-2-propen-1-one] | 4.88 µM |
| O=S(=O)(C/C(=C/CO)S(=O)(=O)c1ccccc1)c1ccccc1 [(Z)-3,4-bis(benzenesulfonyl)but-2-en-1-ol] | 4.03 µM |
| O=C(CC=Nc1ccc2c(c1)OCO2)c1ccccn1 [(Z)-3-(1,3-benzodioxol-5-ylamino)-1-(2-pyridinyl)-2-propen-1-one] | 1.5 µM |
| CCOC(=O)c1[n-]c2ccccc2c1[N+]#N [(Z)-(3-diazonio-2-indolylidene)-ethoxymethanolate] | 13.2 µM |
| COc1ccc(C2=Nn3c(nnc3-c3ccccc3OC)SC2)cc1OC [BMCL181297 Compound 5A] | > 3.67 µM |
| COc1cc2nc(CN3CC=C(c4ccccc4)CC3)nc(O)c2cc1OC [MLS000053305] | 2.36 µM |

Next, values leading:

| IC50 | SMILES |
| --- | --- |
| 1.18 µM | COc1cccc2c1C(=O)c1c(O)c3c(c(O)c1C2=O)C[C@@](O)(C(=O)CO)C[C@@H]3O[C@H]1C[C@H](N)[C@H](O)[C@H](C)O1 [MLS000028393] |
| 7.64 µM | CCOc1cc(C(=O)CSc2nnc(CNc3ccc(Cl)cc3)o2)ccc1NC(=O)CC [MLS000032332] |
| 5.43 µM | Nc1ccc(-c2nc3c(Cl)cc(N)cc3[nH]2)cc1 [MLS000034140] |
| 3.29 µM | Cc1cccc(NC(=O)CSc2nnc(-c3cc(C)n(-c4ccccc4)c3C)o2)c1C [MLS000036049] |
| 5.26 µM | COc1cccc(C(=O)c2sc(NC(C)C)nc2N)c1 [MLS000036929] |
| 6.77 µM | CC(=O)c1sc(NC(=O)C2(F)C(F)(F)C(F)(F)C(F)(F)C(F)(F)C2(F)F)nc1C [MLS000040071] |
| 2.27 µM | COc1ccc(CCNc2ncnc3c2oc2ccccc23)cc1OC [MLS000041708] |
| 4 µM | COc1ccc(C=Nn2nnc3ccccc32)cc1 [MLS000043825] |
| 6.41 µM | CS(=O)(=O)c1nc(-c2cccs2)cc(C(F)(F)F)n1 [MLS000044645] |
| 3.9 µM | Cc1ccc(NC(=O)Cc2nn(C)c(=O)c3ccccc23)cc1F [MLS000047015] |
| 6.3 µM | Cn1nc(CC(=O)Nc2ccc3c(c2)OCCO3)c2ccccc2c1=O [MLS000047020] |
| 6.74 µM | CCn1c2ccccc2c2cc(NC(=O)CSc3nnnn3-c3ccccc3)ccc21 [MLS000051054] |
| 4.65 µM | O=C(NC1=NCCS1)C1COc2ccccc2O1 (centres undefined) [MLS000056062] |
| 0.841 µM | CC(=O)Nc1ccccc1OCC(=O)c1cc(C)n(Cc2cccs2)c1C [MLS000056239] |
| 7.21 µM | COc1ccc(CCNc2nnc(Sc3nnnn3-c3ccccc3)s2)cc1OC [MLS000056567] |
| 4.41 µM | CC(=O)Nc1ccc(SCC(=O)c2cc(C)n(Cc3cccs3)c2C)cc1 [MLS000058142] |
| 4.32 µM | Cc1cc(C)n(-c2ccc3cccc(NS(C)(=O)=O)c3n2)n1 [MLS000062301] |
| 6.57 µM | O=C(Nc1ccc(N2CCOCC2)cc1)c1cnsn1 [MLS000063695] |
| 3.29 µM | CC1CCc2nc(NC(=O)c3ccco3)sc2C1 (centres undefined) [MLS000063711] |
| 9.29 µM | Cc1cc(NC(=O)c2ccc3c(c2)OCCO3)no1 [MLS000064124] |

Same assay, conditions: inactive by the depositor's call

| SMILES | IC50 |
| --- | --- |
| CCCOc1ccccc1C1CC(=O)Nc2cc3c(cc21)OCCO3 (centres undefined) [9-(2-propoxyphenyl)-2,3,8,9-tetrahydro[1,4]dioxino[2,3-g]quinolin-7(6H)-one] | 10.6 µM |
| COc1cccc(OC)c1C1=NCC(=O)Nc2c1oc1ccc(Br)cc21 [9-bromanyl-5-(2,6-dimethoxyphenyl)-1,3-dihydro-[1]benzofuro[3,2-e][1,4]diazepin-2-one] | 15.4 µM |
| COc1ccc(CNc2cc(C)nc3ncnn23)c(OC)c1 [(2,4-Dimethoxy-benzyl)-(5-methyl-[1,2,4]triazolo[1,5-a]pyrimidin-7-yl)-amine] | 23.4 µM |
| Cc1ccc2c(c1)nnn2C1CCN(S(=O)(=O)c2ccc(C(=O)N3C(C)CCCC3C)cc2)CC1 (centres undefined) [(2,6-Dimethyl-piperidin-1-yl)-{4-[4-(5-methyl-benzotriazol-1-yl)-piperidine-1-sulfonyl]-phenyl}-methanone] | 10.6 µM |
| Cc1nc(NC(C)c2ccccc2)c2oc3ccccc3c2n1 (centres undefined) [(2-methylbenzofuro[3,2-d]pyrimidin-4-yl)-(1-phenylethyl)amine] | 23.1 µM |
| CCc1c(C)nc2ncnn2c1NCCc1ccc(OC)cc1 [(6-Ethyl-5-methyl-[1,2,4]triazolo[1,5-a]pyrimidin-7-yl)-[2-(4-methoxy-phenyl)-ethyl]-amine] | 11.6 µM |

More lines, now with the values ahead:

| IC50 | SMILES |
| --- | --- |
| 14 µM | Cc1ccccc1OCC(=O)Nc1ccc(N2CCN(C(=O)C(C)C)CC2)c(Cl)c1 [MLS000034491] |
| 10.8 µM | CS(=O)(=O)c1nc(-c2ccco2)cc(C(F)(F)F)n1 [MLS000044646] |
| 21.1 µM | Cc1noc(C)c1S(=O)(=O)Nc1ccc(C(=O)N2CCN(c3ccc(Cl)cc3)CC2)cc1 [MLS000045033] |
| 12.2 µM | Cc1ccc(F)cc1NC(=O)Cc1nn(C)c(=O)c2ccccc12 [MLS000047013] |
| 18.5 µM | N#C/C(=C/c1ccc(N2CCCCCC2)o1)c1ccc(F)cc1 [MLS000051438] |
| 10.6 µM | CCOC(=O)c1c(C)[nH]c(C(=O)C(C)OC(=O)c2cccc(OCc3c(C)noc3C)c2)c1C (centres undefined) [MLS000054923] |
| 13.3 µM | Cc1cc(C)nc(SCC(=O)Nc2ccc(N3CCOCC3)c(Cl)c2)n1 [MLS000066583] |

— BindingDB's records for doi:10.7270/Q2PR7TCX (The Scripps Research Institute Molecular Screening Center, 2007)
